Assay results: US7544667B2, “Hypocholesterolemic compounds” (Lipideon Biotechnology AG, priority 2003, dated 2009)

system: rabbit brush border membrane vesicles (BBMV); assay: inhibition of cholesterol uptake in rabbit brush border membrane vesicles (BBMV); assay type: biochemical; details: applied in donor SUV (9 mol %); scavenger receptor-mediated uptake of radiolabelled cholesterol ester from donor particles into BBMV bilayer
Method: The compounds of the invention and ezetimibe (commercially obtained or prepared according to Wu, G. Z. et al., J. Org. Chem. 1999) together with the glucuronide (the metabolite of ezetimibe, prepared according to Vaccaro, W. D.; Davis, H. R. Bioorg. Med. Chem. Lett. 1998, 8, 313-318) as appropriate reference compounds were evaluated by well-established methods to determine their inhibition of cholesterol uptake in rabbit brush border membrane vesicles (BBMV) (Table 1). Briefly, the scavenger receptor-mediated uptake of radiolabelled cholesterol ester from the loaded donor particles into the BBMV bilayer was measured in the presence of various compounds of the invention and appropriate reference compounds (Hauser, H. et al., Biochemistry 1998, 37, 17843-17850; Werder, M. et al., Biochemistry 2001, 40, 11643-11650; Boffelli, D. et al., FEBS Lett. 1997, 411, 7-11.)

Structure (SMILES)	Inhibition in (%)
O=C1[C@H](CC[C@H](O)c2ccc(F)cc2)[C@@H](c2ccc(OCC3OC(CO)C(O)C(O)C3O)cc2)N1c1ccc(F)cc1 (some centres unmarked) [VIII]	15 ± 3%
CS(=O)(=O)Oc1ccc([C@@H]2[C@@H](CC[C@H](O)c3ccc(F)cc3)CN2c2ccc(F)cc2)cc1 [VII]	22 ± 2%
COC1OC(CS(=O)(=O)Oc2ccc([C@@H]3[C@@H](CC[C@H](O)c4ccc(F)cc4)CN3c3ccc(F)cc3)cc2)C(O)C(O)C1O (some centres unmarked) [IX]	27 ± 4%
CS(=O)(=O)Oc1ccc([C@@H]2[C@@H](CC[C@H](O)c3ccc(F)cc3)C(=O)N2c2ccc(F)cc2)cc1 [VI]	30 ± 4%
O=C(O)c1cc(S(=O)(=O)Oc2ccc([C@@H]3[C@@H](CC[C@H](O)c4ccc(F)cc4)C(=O)N3c3ccc(F)cc3)cc2)ccc1O [XVI]	21 ± 5%
O=C1[C@H](CC[C@H](O)c2ccc(F)cc2)[C@@H](c2ccc(OS(=O)(=O)CC3OC(CO)C(OC4OC(CO)C(O)C(O)C4O)C(O)C3O)cc2)N1c1ccc(F)cc1 (some centres unmarked) [XVIII]	41 ± 4%
O=C1O[C@H](CC[C@H](O)c2ccc(F)cc2)[C@@H](c2ccc(O)cc2)N1c1ccc(F)cc1 [XXI]	19 ± 2%
O=S(=O)(Oc1ccc([C@@H]2[C@@H](CC[C@H](O)c3ccc(F)cc3)CN2c2ccc(F)cc2)cc1)c1ccccc1 [XV]	19 ± 3%
O=C1[C@H](CC[C@H](O)c2ccc(F)cc2)[C@@H](c2ccc(O)cc2)N1c1ccc(F)cc1 [Ezetimibe, reference compound]	16 ± 4%
O=C(O)[C@H]1O[C@@H](Oc2ccc([C@@H]3[C@@H](CC[C@H](O)c4ccc(F)cc4)C(=O)N3c3ccc(F)cc3)cc2)[C@H](O)[C@@H](O)[C@@H]1O [Glucuronide, reference compound]	19 ± 4%
O=C1[C@H](CC[C@H](O)c2ccc(F)cc2)[C@@H](c2ccc(OS(=O)(=O)c3ccccc3)cc2)N1c1ccc(F)cc1 [XIV]	26 ± 3%
O=C1[C@H](CC[C@H](O)c2ccc(F)cc2)[C@@H](c2ccc(OS(=O)(=O)CC3OC(CO)C(O)C(O)C3O)cc2)N1c1ccc(F)cc1 (some centres unmarked) [X]	15 ± 3%
COC1OC(CS(=O)(=O)Oc2ccc([C@@H]3[C@@H](CC[C@H](O)c4ccc(F)cc4)C(=O)N3c3ccc(F)cc3)cc2)C(O)C(O)C1O (some centres unmarked) [IXb]	20 ± 5%
O=C1[C@H](CC[C@H](O)c2ccc(F)cc2)[C@@H](c2ccc(OCC3OC(CO)C(OC4OC(CO)C(O)C(O)C4O)C(O)C3O)cc2)N1c1ccc(F)cc1 (some centres unmarked) [XVII]	28 ± 4%
